Laboratory results published in patent publication US9434725B2, “5-azaindazole compounds and methods of use” (priority 2012, dated 2016).

Key:
[1] = biological target: PIM2 (Homo sapiens (Human), UniProt Q9P1W9); assay: Pim kinase binding activity, Caliper LC3000 microfluidic peptide phosphorylation assay, PIM2; type: biochemical; conditions: 10 μM ATP, 90 min, room temperature; read-out: PIM2 LC3K (KI)
Method in brief: (§1)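 Read-out is microfluidic electrophoretic separation of phosphorylated from unphosphorylated fluorescent Pim peptide, with Ki calculated from conversion. Reactions ran 90 min at room temperature in HEPES pH 7.2 containing MgCl2, Tween 20 and DTT, ended by EDTA-containing buffer.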

[2] = biological target: PIM3 (Homo sapiens (Human), UniProt Q86V86); assay: Pim kinase binding activity, Caliper LC3000 microfluidic peptide phosphorylation assay, PIM3; type: biochemical; conditions: 10 μM ATP, 90 min, room temperature; read-out: PIM3 LC3K (KI)
Method in brief: as §1

[3] = test system: MM1.S (multiple myeloma) cells; assay: In vitro cell proliferation potency assay (Cell Titer Glo), MM1.S cells; type: cell-based; conditions: Homo sapiens, MM1.S, 72 h, MM1.S cells, 72 hours; read-out: Prolif MM1S ATP (EC50)
Method: (§2) BaF3 parental line was obtained from the DSMZ repository. BaF3 lines transfected with PIM1 or PIM2 were generated. Mouse IL-3 was purchased from R&D Systems. G418 was purchased from Clontech. Media for BaF3 parental line contained RPMI, 10% FBS, 2 mM L-Glutamine, 2 ng/mL mIL-3. Media for BaF3 PIM1 & 2 lines contained RPMI, 10% FBS, 2 mM L-Glutamine, […]. Media for MM1.S (multiple myeloma cells) line contained RPMI, 10% FBS, 2 mM L-Glutamine.
(§3) BaF3, a murine interleukin-3 dependent pro-B cell line, parental cells, BaF3 PIM1 cells, BaF3 PIM2 cells, and MM1.S (multiple myeloma) cells were seeded at 2 k/well, 5 k/well, 5 k/well, and 10 k/well respectively, in a 384-well plate, at 45 μL/well. Test compound was added at 5 μL/well. BaF3 cells (parental and transfected) were incubated overnight, while MM1.S cells were incubated for 72 hours at 37° C., 5% CO2. CELL TITER GLO® Reagent (Promega) was added at 50 μL/well, the plates were incubated for 30 minutes, and their luminescence read on an HT Analyst. IC50/EC50 values for the test compound were calculated.

[4] = biological target: PIM1 (Homo sapiens (Human), UniProt P11309); assay: biochemical; type: biochemical; conditions: 10 μM ATP, 90 min, room temperature; read-out: PIM1 LC3K (KI)
Method in brief: as §1

[5] = test system: BaF3 PIM1 cells; assay: In vitro cell proliferation potency assay (Cell Titer Glo), BaF3 PIM1 cells; type: cell-based, murine; conditions: Mus musculus, BaF3, BaF3 cells transfected with PIM1, incubated overnight; read-out: Prolif BaF3_PIM 1 (IC50)
Method: as §2, §3

Chain of PIM1 (P11309 whole entry): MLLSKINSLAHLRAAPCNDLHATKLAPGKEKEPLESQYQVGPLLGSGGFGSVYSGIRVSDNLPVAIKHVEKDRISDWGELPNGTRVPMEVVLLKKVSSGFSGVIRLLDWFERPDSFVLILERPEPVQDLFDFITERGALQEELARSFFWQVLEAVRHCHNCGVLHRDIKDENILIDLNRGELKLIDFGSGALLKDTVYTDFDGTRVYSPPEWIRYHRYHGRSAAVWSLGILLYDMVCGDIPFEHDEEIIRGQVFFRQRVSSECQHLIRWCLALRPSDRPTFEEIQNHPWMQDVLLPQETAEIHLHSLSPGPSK
Chain of PIM2 (Q9P1W9 whole entry): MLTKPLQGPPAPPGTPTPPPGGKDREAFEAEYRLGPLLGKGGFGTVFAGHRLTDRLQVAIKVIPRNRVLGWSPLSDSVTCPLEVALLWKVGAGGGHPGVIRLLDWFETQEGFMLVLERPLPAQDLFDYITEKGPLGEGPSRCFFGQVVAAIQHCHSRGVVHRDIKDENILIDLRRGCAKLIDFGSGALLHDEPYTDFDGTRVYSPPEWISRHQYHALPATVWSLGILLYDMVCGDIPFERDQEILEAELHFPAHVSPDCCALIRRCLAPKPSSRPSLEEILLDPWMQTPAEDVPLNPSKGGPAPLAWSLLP

Structure (SMILES) | Ki [1] | Ki [2] | EC50 [3] | Ki [4] | IC50 [5]
CCc1cncc(-c2cc3c(cn2)cnn3-c2cccc(N3CCNC[C@@H](O)C3)n2)c1 (single isomer, unassigned) [Compound 122] | 4.59 nM | 0.083 nM | 2.7 µM |  | 
Cc1cncc(-c2cc3c(cn2)cnn3-c2cccc(N3CC(N)CCC3C)n2)n1 (single isomer, unassigned) [Compound 182, 6-methyl-1-[6-[6-(6-methylpyrazin-2-yl)pyrazolo[4,3-c]pyridin-1-yl]-2-pyridyl]piperidin-3-amine] |  |  | 1.9 µM |  | 
Cc1cncc(-c2cc3c(cn2)cnn3-c2cccc(N3CCCNCC3)n2)n1 [Compound 138, 1-[6-(1 4-diazepan-1-yl)-2-pyridyl]-6-(6-methylpyrazin-2-yl)pyrazolo[4,3-c]pyridine] | 0.44 nM |  | 4.6 µM |  | 
Cc1cncc(-c2cc3c(cn2)cnn3-c2cccc(N3CCCNCC3)n2)c1 [Compound 141, 1-(6-(1,4-diazepan-1-yl)pyridin-2-yl)-6-(5-methylpyridin-3-yl)-1H-pyrazolo[4,3-c]pyridine] | 3.37 nM | 0.078 nM | 5 µM |  | 
Cc1cncc(-c2cc3c(cn2)cnn3-c2ccc(C3CC3)c(N3CCC[C@H](N)C3)n2)n1 [Compound 181, (S)-1-(3-cyclopropyl-6-(6-(6-methylpyrazin-2-yl)-1H-pyrazolo[4,3-c]pyridin-1-yl)pyridin-2-yl)piperidin-3-amine] | 0.077 nM | 0.019 nM |  | 0.014 nM | 214 nM
O[C@@H]1CNCCN(c2cccc(-n3ncc4cnc(-c5cnn(CC(F)(F)F)c5)cc43)n2)C1 [Compound 188, (R)-1-(6-(6-(1-(2,2,2-Trifluoroethyl)-1H-pyrazol-4-yl)-1H-pyrazolo[4,3-c]pyridin-1-yl)-pyridin-2-yl)-1,4-diazepan-6-ol] | 4.64 nM | 0.611 nM |  | 0.173 nM | 418 nM
O[C@H]1CNCCN(c2cccc(-n3ncc4cnc(-c5cnn(CC(F)(F)F)c5)cc43)n2)C1 [Compound 189, (S)-1-(6-(6-(1-(2,2,2-Trifluoroethyl)-1H-pyrazol-4-yl)-1H-pyrazolo[4,3-c]pyridin-1-yl)-pyridin-2-yl)-1,4-diazepan-6-ol] | 0.373 nM | 0.089 nM |  | 0.038 nM | 181 nM
Cc1cncc(-c2cc3c(cn2)cnn3-c2cccc(NC3CCNCC3)n2)n1 [Compound 190, 6-[6-(6-methylpyrazin-2-yl)pyrazolo[4,3-c]pyridin-1-yl]-N-(4-piperidyl)pyridin-2-amine] | 1.28 nM | 0.023 nM |  | 0.06 nM | 235 nM
Cc1cncc(-c2cc3c(cn2)cnn3-c2cccc(N3C[C@@H](N)C[C@H](F)C3)n2)n1 [Compound 192, (3S,5S)-5-fluoro-1-[6-[6-(6-methylpyrazin-2-yl)pyrazolo[4,3-c]pyridin-1-yl]-2-pyridyl]piperidin-3-amine] | 3.35 nM | 0.21 nM |  | 0.428 nM | 1700 nM
Cc1cncc(-c2cc3c(cn2)cnn3-c2cccc(N3CCC(N)CC3)n2)n1 [Compound 194, 1-[6-[6-(6-methylpyrazin-2-yl)pyrazolo[4,3-c]pyridin-1-yl]-2-pyridyl]piperidin-4-amine] | 3.12 nM | 0.125 nM |  | 0.243 nM | 1500 nM
Cc1cncc(-c2cc3c(cn2)cnn3-c2ccc(C3CC3)c(N3CCCNCC3)n2)n1 [Compound 197, 1-(5-cyclopropyl-6-(1,4-diazepan-1-yl)pyridin-2-yl)-6-(6-methylpyrazin-2-yl)-1H-pyrazolo[4,3-c]pyridine] | 1.22 nM | 0.046 nM |  | 0.055 nM | 2200 nM
Cc1cncc(-c2cc3c(cn2)cnn3-c2cccc(N3C[C@@H](N)C[C@@H](F)C3)n2)n1 [Compound 198, (3S,5R)-5-fluoro-1-[6-[6-(6-methylpyrazin-2-yl)pyrazolo[4,3-c]pyridin-1-yl]-2-pyridyl]piperidin-3-amine] | 2.55 nM | 0.089 nM |  | 0.117 nM | 1100 nM
COc1ccc(-n2ncc3cnc(-c4cncc(C)n4)cc32)nc1N1CCNCC(O)C1 (stereo not drawn) [Compound 207, 1-(3-methoxy-6-(6-(6-methylpyrazin-2-yl)-1H-pyrazolo[4,3-c]pyridin-1-yl)pyridin-2-yl)-1,4-diazepan-6-ol] | 3.67 nM | 0.093 nM |  | 0.182 nM | 1500 nM
Cc1nc(-c2cc3c(cn2)cnn3-c2cccc(N3CCC[C@H](N)C3)n2)cnc1N [Compound 209, (S)-5-(1-(6-(3-aminopiperidin-1-yl)pyridin-2-yl)-1H-pyrazolo[4,3-c]pyridin-6-yl)-3-methylpyrazin-2-amine] | 0.575 nM | 0.011 nM |  | 0.045 nM | 682 nM
Cc1cncc(-c2cc3c(cn2)cnn3-c2cccc(N3CCC4(CNC4)C3)n2)n1 [Compound 214, 1-[6-(2 6-diazaspiro[3.4]octan-6-yl)-2-pyridyl]-6-(6-methylpyrazin-2-yl)pyrazolo[4,3-c]pyridine] | 2.65 nM | 0.199 nM |  | 0.385 nM | 1000 nM
Cc1cncc(-c2cc3c(cn2)cnn3-c2cccc(N3CCC4(CCCN4)CC3)n2)n1 [Compound 216, 8-[6-[6-(6-methylpyrazin-2-yl)pyrazolo[4,3-c]pyridin-1-yl]-2-pyridyl]-1 8-diazaspiro[4.5]decane] | 2.95 nM | 0.094 nM |  | 0.223 nM | 715 nM
Cc1cncc(-c2cc3c(cn2)cnn3-c2cnc(C)c(N3CCC[C@H](N)C3)n2)n1 [Compound 228, (3S)-1-[3-methyl-6-[6-(6-methylpyrazin-2-yl)pyrazolo[4,3-c]pyridin-1-yl]pyrazin-2-yl]piperidin-3-amine] | 0.724 nM | 0.047 nM |  | 0.074 nM | 778 nM
OCC(O)c1cncc(-c2cc3c(cn2)cnn3-c2cccc(N3CCNCC3)n2)n1 (stereo not drawn) [Compound 277, 1-(6-(1-(6-(piperazin-1-yl)pyridin-2-yl)-1H-pyrazolo[4,3-c]pyridin-6-yl)pyrazin-2-yl)ethane-1,2-diol] | 4.67 nM |  | 4.2 µM |  | 
NCCOc1cncc(-c2cc3c(cn2)cnn3-c2cccc(N3CCNCC3)n2)n1 [Compound 286, 2-((6-(1-(6-(piperazin-1-yl)pyridin-2-yl)-1H-pyrazolo[4,3-c]pyridin-6-yl)pyrazin-2-yl)oxy)ethanamine] |  | 0.092 nM | 8.2 µM |  | 
Cc1cncc(-c2cc3c(cn2)cnn3-c2cccc(N3CCC[C@@H](O)C3)n2)n1 [Compound 298, (R)-1-(6-(6-(6-methylpyrazin-2-yl)-1H-pyrazolo[4,3-c]pyridin-1-yl)pyridin-2-yl)piperidin-3-ol] | 2.68 nM | 0.396 nM |  | 0.854 nM | 1600 nM
Cc1cncc(-c2cc3c(cn2)cnn3-c2cccc(N3CCC[C@H](O)C3)n2)n1 [Compound 299, (S)-1-(6-(6-(6-methylpyrazin-2-yl)-1H-pyrazolo[4,3-c]pyridin-1-yl)pyridin-2-yl)piperidin-3-ol] | 4.17 nM | 0.248 nM |  | 0.419 nM | 1600 nM
FC1CCNCC1c1cccc(-n2ncc3cnc(-c4cnn(CC(F)(F)F)c4)cc32)n1 (stereo not drawn) [Compound 306, 1-(6-(4-fluoropiperidin-3-yl)pyridin-2-yl)-6-(1-(2,2,2-trifluoroethyl)-1H-pyrazol-4-yl)-1H-pyrazolo[4,3-c]pyridine] |  | 0.125 nM | 1.7 µM |  | 
